≈ marks a conversion by molar mass, not a printed value. Read-outs that look alike come from different tables or passages of the source.
Assays:
[1] = system: methicillin-resistant S. aureus (MRSA) ATCC 43300; test: Broth microdilution antibacterial assay; format: cell-based, Staphylococcus aureus; settings: for Selectivity index (CC50/IC50): MRC-5 CC50 / MRSA IC50; for IC50 / MIC: Staphylococcus aureus; for IC50: average of two biological replicates ± S.D., read-out: IC50
Procedure: (§1) Antibacterial Assay Procedure
(§2) Broth Microdilution Assays
(§3) Media and solutions were autoclaved or sterile filtered prior to use and manipulations were carried out in a laminar flow hood. Antibacterial testing was performed in polypropylene 96 -well flat bottom plates. The minimal inhibitory concentration of blasticidin S ( 1) hydrochloride, P10 (2), and derivatives 15–22 were assessed against Staphylococcus aureus ΔNorA, S. aureus 8810, methicillin-resistant S. aureus (MRSA) ATCC 43300, Enterococcus faecalis ATCC 29212, vancomycin-resistant Enterococcus, Klebsiella pneumoniae ATCC 29665, Pseudomonas aeruginosa, and Acinetobacter baumannii ATCC 17978 using serial dilutions. Doxycycline (Gold Bio) as a positive control and the vehicle as a negative control. Stock solutions of each compound were prepared at 5.12 mg/mL in 50% DMSO/water and serially diluted in 50% DMSO/water to create master plates. From the master plates, 10 μL of each dilution was applied to test plates using a Bravo automated liquid transfer system (Agilent). Bacteria previously grown overnight (37 °C, 120 – 200 RPM), in LB broth were diluted to an OD600 of 0.0 5 in cation-adjusted Mueller-Hinton broth, grown to an OD600 of ~0.5, and diluted to an OD600 of 0.004 in cation-adjusted Mueller-Hinton broth. These diluted cultures were applied to the test plates (190 μL per test well) resulting in final concentrations of the test compounds of 256–2 μg/mL. Growth controls (wells with inoculated media but no vehicle or test compounds) were included to assess any potential toxicity from the vehicle. The plates were incubated at 37 °C for 16–18 h, except for VRE and E. faecalis, which were incubated at 37 °C for 24 h. Inhibition was determined by measuring the optical density at 600 nm (OD600) with a Cytation 3 plate reader (BioTek). The optical density measurements were normalized to the positive and negative controls and the vehicle and growth controls were compared and found to be indistinguishable, indicating no toxicity from the vehicle used. The MIC was the lowest concentration that inhibited >90% of growth. Two biological replicates were performed in duplicate. MIC values are reported […]
(§4) as a range from biological replicates. Inhibition curves were generated using Prism (GraphPad).
(§5) The IC50 values reported in Table 2 are the average of the two biological replicates ± standard […]
(§6) Cytotoxicity Assay Procedure
(§7) Human lung fibroblast cells, MRC -5 (CCL-171), were cultured at 37℃ with 5% CO2 and were plated at 5000 cells/well in a 96 -well plate. Compounds 1, 2, and 15-22 were initially prepared at concentrations of 5.12 mg/mL in a vehicle of 50% DMSO. Dilutions of the compounds (4 – 512 μg/mL) were then prepared in growth medium containing Dulbecco’s modified Eagle’s medium (DMEM) with high glucose, L -glutamine, and sodium pyruvate supplemented with 10% fetal bovine serum (FBS), 1% non -essential amino acids, and 0.1% gentamicin sulfate, and 25mM HEPES. The vehicle (50% DMSO) was also prepared via the sa me dilution series to serve as a control. Growth media was removed from the cells and replaced with the same volume of each compound dilution. Cells were incubated for 24 h , after which CellTiter 96® AQueous One Solution Reagent was added to each well as recommended by the manufacturer’s protocol (Promega CellTiter 96 AQueous One Solution Cell Proliferation Assay) and further incubated for 4 h. After incubation, absorbance was measured at 490 nm on an Infinite M plex multimode microplate reader with i -control Tecan software. Viability was calculated by subtracting media only absorbance values and normalizing to the vehicle control at each concentration. The presented data is one assay performed in triplicate that is representative of multiple trials. Data for the 256 and 512 μg/mL concentrations were removed from analysis due to vehicle toxicity […]
(§8) CC50 concentrations were determined via the ED50 Plus v1.0 software (https://archive.org/details/ed50v10_zip).

S. aureus 8810 = test: Broth microdilution antibacterial assay; format: cell-based, Staphylococcus aureus; settings: for Selectivity index (CC50/IC50): MRC-5 CC50 / S. aureus IC50; for IC50 / MIC: Staphylococcus aureus, 8810; for IC50: average of two biological replicates ± S.D., read-out: IC50
Procedure: as §1, §2, §3, §4, §5, §6, §7, §8

in vitro = format: cell-based, human; settings: human; MRC-5 (lung fibroblast); 24 h; one biological replicate (n = 3); read-out: CC50 for human cells
Procedure: as §4, §5, §6, §7, §8
Figure S41. The effect of compounds on cell viability. The lines represent non -linear regression curves, and error bars represent means ± […]
SD (n=3). […]

[2] = system: Enterococcus faecalis ATCC 29212; test: Broth microdilution antibacterial assay; format: cell-based; settings: for MIC / IC50: Enterococcus faecalis, ATCC29212; for IC50: average of two biological replicates ± S.D. (18: one biological replicate), read-out: IC50; for Selectivity index (CC50/IC50): MRC-5 CC50 / E. faecalis IC50
Procedure: as §1, §2, §3, §4, §5, §6, §7, §8

[3] = system: Acinetobacter baumannii ATCC 17978; test: Broth microdilution antibacterial assay; format: cell-based; settings: for IC50 / MIC: Acinetobacter baumannii, ATCC17978; for IC50: average of two biological replicates ± S.D., read-out: IC50; for Selectivity index (CC50/IC50): MRC-5 CC50 / A. baumannii IC50
Procedure: as §1, §2, §3, §4, §5, §6, §7, §8

[4] = system: Staphylococcus aureus ΔNorA; test: Broth microdilution antibacterial assay; format: cell-based; settings: for Selectivity index (CC50/IC50): MRC-5 CC50 / S. aureus ΔNorA IC50; for IC50 / MIC: Staphylococcus aureus
Procedure: as §1, §2, §3, §4, §5, §6, §7, §8

[5] = system: vancomycin-resistant Enterococcus (VRE); test: Broth microdilution antibacterial assay; format: cell-based; settings: for MIC / IC50: Enterococcus, VRE; for IC50: average of two biological replicates ± S.D., read-out: IC50; for Selectivity index (CC50/IC50): MRC-5 CC50 / VRE IC50
Procedure: as §1, §2, §3, §4, §5, §6, §7, §8

Pseudomonas aeruginosa = test: Broth microdilution antibacterial assay; format: cell-based; settings: for Selectivity index (CC50/IC50): MRC-5 CC50 / P. aeruginosa IC50; for IC50 / MIC: Pseudomonas aeruginosa; for IC50: average of two biological replicates ± S.D., read-out: IC50
Procedure: as §1, §2, §3, §4, §5, §6, §7, §8

[6] = system: Klebsiella pneumoniae ATCC 29665; test: Broth microdilution antibacterial assay; format: cell-based; settings: for IC50 / MIC: Klebsiella pneumoniae, ATCC29665, K. pneumoniae; for IC50: average of two biological replicates ± S.D., read-out: IC50; for MIC: lowest concentration inhibiting >90% of growth, range from biological replicates, read-out: MIC; for Selectivity index (CC50/IC50): MRC-5 CC50 / K. pneumoniae IC50
Procedure: as §1, §2, §3, §4, §5, §6, §7, §8

[7] = MRSA, lowest concentration inhibiting >90% of growth, range from biological replicates, read-out: MIC
[8] = average MIC, Table S3, read-out: Average Activity against MRSA
[9] = S. aureus, lowest concentration inhibiting >90% of growth, range from biological replicates, read-out: MIC
[10] = average MIC, Table S3, read-out: Average Activity against S. aureus
[11] = E. faecalis, 24 h, lowest concentration inhibiting >90% of growth, range from biological replicates, read-out: MIC
[12] = average MIC, Table S3, read-out: Average Activity against E. faecalis
[13] = A. baumannii, lowest concentration inhibiting >90% of growth, range from biological replicates, read-out: MIC
[14] = average MIC, Table S3, read-out: Average Activity against VRE
[15] = 24 h, lowest concentration inhibiting >90% of growth, range from biological replicates, read-out: MIC
[16] = P. aeruginosa, lowest concentration inhibiting >90% of growth, range from biological replicates, read-out: MIC

Structure (SMILES)	Selectivity index (CC50/IC50) [1]	IC50 ([1]; MRSA) [µg/mL]	MIC [1, 7] [µg/mL]	MIC [1, 8] [µg/mL]	Selectivity index (CC50/IC50) (S. aureus 8810)	IC50 (S. aureus 8810; S. aureus) [µg/mL]	MIC (S. aureus 8810; [9]) [µg/mL]	MIC (S. aureus 8810; [10]) [µg/mL]	CC50 at 24 h (in vitro) [µg/mL]	MIC [2, 11] [µg/mL]	IC50 ([2]; E. faecalis) [µg/mL]	MIC [2, 12] [µg/mL]	Selectivity index (CC50/IC50) [2]	IC50 ([3]; A. baumannii) [µg/mL]	Selectivity index (CC50/IC50) [3]	Selectivity index (CC50/IC50) [4]	IC50 [4] [µg/mL]	MIC [4] [µg/mL]	MIC [5, 14] [µg/mL]	MIC [5, 15] [µg/mL]	also measured
C#CCNC(=O)[C@H]1O[C@@H](n2ccc(N)nc2=O)C=C[C@@H]1NC(=O)C[C@@H](N)CCN(C)C(=N)N [Compound 19]	4.8	6.9 ± 1.2 (≈ 15 µM)	16 to 32 (≈ 34.8 to 69.6 µM)	24 (≈ 52.2 µM)	9.2	3.6 ± 0.3 (≈ 7.83 µM)	32 (≈ 69.6 µM)	32 (≈ 69.6 µM)	33.1 (≈ 72 µM)	16 to 32 (≈ 34.8 to 69.6 µM)	7.6 ± 1.5 (≈ 16.5 µM)	16 (≈ 34.8 µM)	4.4	21.1 ± 3.9 (≈ 45.9 µM)	1.6	2.0	16.2 ± 0.9 (≈ 35.3 µM)	64 to 128 (≈ 139 to 279 µM)	64 (≈ 139 µM)	64 (≈ 139 µM)	MIC [3, 13]: 128 µg/mL (≈ 279 µM); IC50 [5]: 21.1 ± 4.8 µg/mL (≈ 45.9 µM); Selectivity index (CC50/IC50) [5]: 1.6; Selectivity index (CC50/IC50) (Pseudomonas aeruginosa): 2.1; IC50 (Pseudomonas aeruginosa; P. aeruginosa): 16.1 ± 0.9 µg/mL (≈ 35 µM); MIC (Pseudomonas aeruginosa; [16]): 64 µg/mL (≈ 139 µM); IC50 [6]: 40.4 ± 6.2 µg/mL (≈ 87.9 µM); MIC [6]: 128 µg/mL (≈ 279 µM); Selectivity index (CC50/IC50) [6]: 0.8
CN(CC[C@H](N)CC(=O)N[C@H]1C=C[C@H](n2ccc(N)nc2=O)O[C@@H]1C(=O)NCCO)C(=N)N [Compound 21]	4.9	11.8 ± 0.2 (≈ 25.3 µM)	32 to 64 (≈ 68.7 to 137 µM)	48 (≈ 103 µM)	7.1	8.1 ± 0.7 (≈ 17.4 µM)	64 (≈ 137 µM)	64 (≈ 137 µM)	58.1 (≈ 125 µM)	32 (≈ 68.7 µM)	22.3 ± 4 (≈ 47.9 µM)	32 (≈ 68.7 µM)	2.6	21.2 ± 0.6 (≈ 45.5 µM)	2.7	1.6	35.5 ± 2.5 (≈ 76.3 µM)	256 (≈ 550 µM)	128 (≈ 275 µM)	128 (≈ 275 µM)	MIC [3, 13]: 64 to 128 µg/mL (≈ 137 to 275 µM); IC50 [5]: 15.3 ± 3.3 µg/mL (≈ 32.9 µM); Selectivity index (CC50/IC50) [5]: 3.8; Selectivity index (CC50/IC50) (Pseudomonas aeruginosa): 1.7; IC50 (Pseudomonas aeruginosa; P. aeruginosa): 34.1 ± 0.3 µg/mL (≈ 73.3 µM); MIC (Pseudomonas aeruginosa; [16]): 128 µg/mL (≈ 275 µM); IC50 [6]: 19.7 ± 0.5 µg/mL (≈ 42.3 µM); MIC [6]: 64 µg/mL (≈ 137 µM); Selectivity index (CC50/IC50) [6]: 3.0
CCNC(=O)[C@H]1O[C@@H](n2ccc(N)nc2=O)C=C[C@@H]1NC(=O)C[C@@H](N)CCN(C)C(=N)N [Compound 16]	9.2	14.9 ± 1.6 (≈ 33.1 µM)	32 (≈ 71.2 µM)	32 (≈ 71.2 µM)	26	5.3 ± 1.5 (≈ 11.8 µM)	32 (≈ 71.2 µM)	32 (≈ 71.2 µM)	137 (≈ 305 µM)	16 to 32 (≈ 35.6 to 71.2 µM)	9.6 ± 4 (≈ 21.4 µM)	16 (≈ 35.6 µM)	14	35.7 ± 11 (≈ 79.4 µM)	3.8	7.0	19.6 ± 1.8 (≈ 43.6 µM)	128 (≈ 285 µM)	64 (≈ 142 µM)	64 (≈ 142 µM)	MIC [3]: 128 µg/mL (≈ 285 µM); IC50 [5]: 20.2 ± 8.1 µg/mL (≈ 44.9 µM); Selectivity index (CC50/IC50) [5]: 6.8; Selectivity index (CC50/IC50) (Pseudomonas aeruginosa): 6.3; MIC (Pseudomonas aeruginosa): 64 to 128 µg/mL (≈ 142 to 285 µM); IC50 (Pseudomonas aeruginosa; P. aeruginosa): 21.8 ± 2.7 µg/mL (≈ 48.5 µM); IC50 [6]: 60.1 ± 6.2 µg/mL (≈ 134 µM); MIC [6]: 256 µg/mL (≈ 570 µM); Selectivity index (CC50/IC50) [6]: 2.3

Source: article PMC10945559, “Forgotten Natural Products: Semisynthetic Development of Blasticidin S As an Antibiotic Lead” (ACS Medicinal Chemistry Letters, 2024)
